Laboratory results as given in patent publication US10538532B2, “Hepatitis B antiviral agents” (ENANTA PHARMACEUTICALS, INC., priority 2016, dated 2020).
Like-named read-outs stand apart in the source and are kept apart here.

Test system: HBV
Assay: HepAD38 antiviral assay: reduction of viral product accumulation (virion DNA by qPCR, HBsAg or HBeAg by ELISA)
Format: cell-based, hepatitis B virus
Conditions: HepAD38 cells, five days after compound addition, concentration reducing viral product accumulation by 50% relative to no drug controls, read-out: HepAD38 EC50
Summary of the method: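 EC50 values represent 50% reduction of viral product accumulation in lysates or supernatants relative to untreated controls, with virion DNA read by qPCR and HBsAg/HBeAg by ELISA. Measurements followed 5 days of treatment, or 8 days with compound renewed on d2 and d5. Cells were tetracycline-depleted HepAD38 at 35,000/well, dosed with a 1:200 dilution of DMSO stocks.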

[1] = Hepatitis B virus, HePAD38, 120 h

Row | SMILES | EC50 [1] | EC50
1 | CC(C)(C)[Si](C)(C)O[C@H]1C2CCC1C[C@@H](S(=O)(=O)c1cc(C(=O)Nc3cc(F)c(F)c(F)c3)ccc1Cl)C2 [Example 195] | > 0.4 µM | 
2 | C/[N+]([O-])=C\[C@]1(O)CC2CC[C@@H](C1)[C@H]2S(=O)(=O)c1cc(C(=O)Nc2cc(F)c(F)c(F)c2)ccc1Cl [Example 196] | < 0.1 µM | 
3 | CCOC(OCC)[C@]1(O)CC2CC[C@@H](C1)[C@H]2S(=O)(=O)c1cc(C(=O)Nc2cc(F)c(F)c(F)c2)ccc1Cl [Example 197] | 0.1 to 0.4 µM | 
4 | O=C(Nc1cccnc1)N[C@@H]1C2CC[C@H]1C[C@H](S(=O)(=O)c1cc(C(=O)Nc3cc(F)c(F)c(F)c3)ccc1Cl)C2 [Example 198] | < 0.1 µM | 
5 | O=C(Nc1cc(F)c(F)c(F)c1)c1ccc(Cl)c(S(=O)(=O)[C@H]2C3CC[C@H]2C[C@](O)(/C=[N+](\[O-])Cc2ccccc2)C3)c1 [Example 199] | 0.1 to 0.4 µM | 
6 | CN1OCC(C#N)C1[C@]1(O)CC2CC[C@@H](C1)[C@H]2S(=O)(=O)c1cc(C(=O)Nc2cc(F)c(F)c(F)c2)ccc1Cl (some centres unmarked) [Example 200] | 0.1 to 0.4 µM | 
7 | CO/N=C/[C@]1(O)CC2CC[C@@H](C1)[C@H]2S(=O)(=O)c1cc(C(=O)Nc2cc(F)c(F)c(F)c2)ccc1Cl [Example 201] | < 0.1 µM | 
8 | CCO/N=C/[C@]1(O)CC2CC[C@@H](C1)[C@H]2S(=O)(=O)c1cc(C(=O)Nc2cc(F)c(F)c(F)c2)ccc1Cl [Example 202] | < 0.1 µM | 
9 | CC(C)(C)O/N=C/[C@]1(O)CC2CC[C@@H](C1)[C@H]2S(=O)(=O)c1cc(C(=O)Nc2cc(F)c(F)c(F)c2)ccc1Cl [Example 203] | < 0.1 µM | 
10 | C=CCO/N=C/[C@]1(O)CC2CC[C@@H](C1)[C@H]2S(=O)(=O)c1cc(C(=O)Nc2cc(F)c(F)c(F)c2)ccc1Cl [Example 204] | < 0.1 µM | 
11 | O=C(Nc1cc(F)c(F)c(F)c1)c1ccc(Cl)c(S(=O)(=O)[C@H]2C3CC[C@H]2C[C@](O)(/C=N/OCc2ccccc2)C3)c1 [Example 205] | < 0.1 µM | 
12 | O=C(Nc1cc(F)c(F)c(F)c1)c1ccc(Cl)c(S(=O)(=O)C2CC3CCC(C2)C3=O)c1 (centres unmarked) [Example 206] |  | > 0.4 µM
13 | C=C1C2CCC1CC(S(=O)(=O)c1cc(C(=O)Nc3cc(F)c(F)c(F)c3)ccc1Cl)C2 (centres unmarked) [Example 207] | > 0.4 µM | 
14 | O=C(Nc1cc(F)c(F)c(F)c1)c1ccc(Cl)c(S(=O)(=O)[C@H]2CC3CCC(C2)[C@]3(O)CO)c1 [Example 208] |  | > 0.4 µM
15 | N#CC1CON(Cc2ccccc2)C1[C@]1(O)CC2CC[C@@H](C1)[C@H]2S(=O)(=O)c1cc(C(=O)Nc2cc(F)c(F)c(F)c2)ccc1Cl (some centres unmarked) [Example 209] | > 0.4 µM | 
16 | N#CC1CON(Cc2ccccc2)C1C1=C[C@@H]2CCC(C1)[C@@H]2S(=O)(=O)c1cc(C(=O)Nc2cc(F)c(F)c(F)c2)ccc1Cl (some centres unmarked) [Example 210] | > 0.4 µM | 
17 | COC(=O)C1CON(Cc2ccccc2)[C@@]12CC1CC[C@@H](C2)[C@H]1S(=O)(=O)c1cc(C(=O)Nc2cc(F)c(F)c(F)c2)ccc1Cl (some centres unmarked) [Example 211] | > 0.4 µM | 
18 | COC(=O)C1OCN(Cc2ccccc2)[C@]12CC1CC[C@@H](C2)[C@H]1S(=O)(=O)c1cc(C(=O)Nc2cc(F)c(F)c(F)c2)ccc1Cl (some centres unmarked) [Example 212] | > 0.4 µM | 
19 | COC(=O)C1CON(Cc2ccccc2)C1[C@]1(O)CC2CC[C@@H](C1)[C@H]2S(=O)(=O)c1cc(C(=O)Nc2cc(F)c(F)c(F)c2)ccc1Cl (some centres unmarked) [Example 213] | > 0.4 µM | 
20 | COC(=O)C1CON(Cc2ccccc2)C1C1=C[C@@H]2CCC(C1)[C@@H]2S(=O)(=O)c1cc(C(=O)Nc2cc(F)c(F)c(F)c2)ccc1Cl (some centres unmarked) [Example 214] | 0.1 to 0.4 µM | 
21 | COC(=O)C1=CON(Cc2ccccc2)C1[C@]1(O)CC2CC[C@@H](C1)[C@H]2S(=O)(=O)c1cc(C(=O)Nc2cc(F)c(F)c(F)c2)ccc1Cl (some centres unmarked) [Example 215] | > 0.4 µM | 

Row | SMILES | EC50 [1] | EC50
22 | COC(=O)C1=CON(Cc2ccccc2)C1[C@]1(O)CC2CC[C@@H](C1)[C@H]2S(=O)(=O)c1cc(C(=O)Nc2cc(F)c(F)c(F)c2)ccc1Cl (some centres unmarked) [Example 216] |  | > 0.4 µM
23 | COC(=O)C1CON(C)[C@@]12CC1CC[C@@H](C2)[C@H]1S(=O)(=O)c1cc(C(=O)Nc2cc(F)c(F)c(F)c2)ccc1Cl (some centres unmarked) [Example 217] | > 0.4 µM | 
24 | COC(=O)C1CON(C)[C@]12CC1CC[C@@H](C2)[C@H]1S(=O)(=O)c1cc(C(=O)Nc2cc(F)c(F)c(F)c2)ccc1Cl (some centres unmarked) [Example 218] | > 0.4 µM | 
25 | CCOC(=O)/C=C1/CC2CC[C@@H](C1)[C@H]2S(=O)(=O)c1cc(C(=O)Nc2cc(F)c(F)c(F)c2)ccc1Cl [Example 221] | 0.1 to 0.4 µM | 
26 | CCOC(=O)/C=C/[C@]1(O)CC2CC[C@@H](C1)[C@H]2S(=O)(=O)c1cc(C(=O)Nc2cc(F)c(F)c(F)c2)ccc1Cl [Example 222] | > 0.4 µM | 
27 | O=C(Nc1cc(F)c(F)c(F)c1)c1ccc(Cl)c(S(=O)(=O)[C@H]2CC3CCC(C2)[C@@]3(O)CO)c1 [Example 223] | < 0.1 µM | 
28 | O=C(Nc1cc(F)c(F)c(F)c1)c1ccc(Cl)c(S(=O)(=O)[C@H]2C3CC[C@H]2C[C@](O)(/C=N/OCc2ccc(-c4ccccc4)cc2)C3)c1 [Example 224] | 0.1 to 0.4 µM | 
29 | O=C(O)/C=C/[C@]1(O)CC2CC[C@@H](C1)[C@H]2S(=O)(=O)c1cc(C(=O)Nc2cc(F)c(F)c(F)c2)ccc1Cl [Example 225] | > 0.4 µM | 
30 | O=C(Nc1cc(F)c(F)c(F)c1)c1ccc(Cl)c(S(=O)(=O)[C@H]2C3CC[C@H]2C[C@H](/C=N/O)C3)c1 [Example 229] | < 0.1 µM | 
31 | Cc1ccc(CO/N=C/[C@]2(O)CC3CC[C@@H](C2)[C@H]3S(=O)(=O)c2cc(C(=O)Nc3cc(F)c(F)c(F)c3)ccc2Cl)cc1 [Example 230] | 0.1 to 0.4 µM | 
32 | O=C(Nc1cc(F)c(F)c(F)c1)c1ccc(Cl)c(S(=O)(=O)[C@H]2C3CC[C@H]2C[C@](O)(/C=N/OCc2ccc(C(F)(F)F)cc2)C3)c1 [Example 231] | 0.1 to 0.4 µM | 
33 | O=C(Nc1cc(F)c(F)c(F)c1)c1ccc(Cl)c(S(=O)(=O)[C@H]2C3CC[C@H]2C[C@](O)(/C=N/OCc2ccc(F)cc2)C3)c1 [Example 232] | < 0.1 µM | 
34 | COc1ccc(CO/N=C/[C@]2(O)CC3CC[C@@H](C2)[C@H]3S(=O)(=O)c2cc(C(=O)Nc3cc(F)c(F)c(F)c3)ccc2Cl)cc1 [Example 233] | < 0.1 µM | 
35 | O=C(Nc1cc(F)c(F)c(F)c1)c1ccc(Cl)c(S(=O)(=O)[C@H]2C3CC[C@H]2C[C@](O)(/C=N/OCc2ccc([N+](=O)[O-])cc2)C3)c1 [Example 234] | 0.1 to 0.4 µM | 
36 | O=C(Nc1cc(F)c(F)c(F)c1)c1ccc(Cl)c(S(=O)(=O)[C@H]2C3CC[C@H]2C[C@](O)(/C=N/OCc2c(F)c(F)c(F)c(F)c2F)C3)c1 [Example 235] | 0.1 to 0.4 µM | 
37 | O=C(Nc1cc(F)c(F)c(F)c1)c1ccc(Cl)c(S(=O)(=O)[C@H]2C3CC[C@H]2C[C@](O)(/C=N/OCc2cccc(F)c2)C3)c1 [Example 236] | 0.1 to 0.4 µM | 
38 | COc1cccc(CO/N=C/[C@]2(O)CC3CC[C@@H](C2)[C@H]3S(=O)(=O)c2cc(C(=O)Nc3cc(F)c(F)c(F)c3)ccc2Cl)c1 [Example 237] | 0.1 to 0.4 µM | 
39 | COc1ccccc1CO/N=C/[C@]1(O)CC2CC[C@@H](C1)[C@H]2S(=O)(=O)c1cc(C(=O)Nc2cc(F)c(F)c(F)c2)ccc1Cl [Example 238] | 0.1 to 0.4 µM | 
40 | O=C(Nc1cc(F)c(F)c(F)c1)c1ccc(Cl)c(S(=O)(=O)[C@H]2C3CC[C@H]2C[C@H](c2cc(-c4ccccc4)on2)C3)c1 [Example 239] | < 0.1 µM | 
41 | O=C(Nc1cc(F)c(F)c(F)c1)c1ccc(Cl)c(S(=O)(=O)C[C@H]2CC3CC2[C@H](O)[C@@H]3O)c1 (some centres unmarked) [Example 241] | < 0.1 µM | 
